Measurements published in US7932262B2 (Novartis AG, priority 2006, dated 2011).
pEC50, pIC50: −log10 of the molar value. Like-named read-outs stand apart in the source and are kept apart here.

Legend:
PDK1 kinase = molecular target: T1, PDK1 kinase (Homo sapiens, UniProt O15530); experiment: PDK1 Kinase Alpha Screen Assay; type: biochemical; details: read-out: PDK1 IC50
T1 sequence (O15530 1-556): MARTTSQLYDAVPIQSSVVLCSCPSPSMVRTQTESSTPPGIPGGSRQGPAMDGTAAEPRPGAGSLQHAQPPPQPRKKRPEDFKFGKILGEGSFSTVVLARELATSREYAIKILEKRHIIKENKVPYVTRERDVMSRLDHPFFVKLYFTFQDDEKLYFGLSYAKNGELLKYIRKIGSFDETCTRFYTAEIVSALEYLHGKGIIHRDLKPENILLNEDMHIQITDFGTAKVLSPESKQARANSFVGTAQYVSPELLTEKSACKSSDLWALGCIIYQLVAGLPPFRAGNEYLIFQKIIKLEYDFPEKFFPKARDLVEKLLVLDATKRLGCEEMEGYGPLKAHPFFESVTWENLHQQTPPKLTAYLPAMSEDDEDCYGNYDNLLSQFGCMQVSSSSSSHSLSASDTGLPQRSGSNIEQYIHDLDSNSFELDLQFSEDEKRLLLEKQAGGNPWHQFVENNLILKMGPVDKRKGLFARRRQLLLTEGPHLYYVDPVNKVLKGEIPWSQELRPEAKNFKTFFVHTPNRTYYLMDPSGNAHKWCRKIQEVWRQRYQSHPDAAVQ
Outline: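 AlphaScreen readout: phospho-peptide captured by phospho-(Ser/Thr) PKA substrate antibody (0.3 mg/ml) on protein A acceptor beads, biotin peptide on streptavidin donor beads (25 μg/ml each), overnight at room temperature. Kinase step used 50 nM PDK1-4 peptide, 10 uM ATP, 3-18 hours.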

A2780 cells = experiment: Cell Proliferation Assay (Cell Titer Glo), A2780; type: cell-based; details: Homo sapiens, read-out: CPEC50 A2780
Outline: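 Following a 3-day compound exposure (37° C., 5% CO2) of A2780 or PC3MM cells plated at 1000 per well, viability was measured by Cell Titer Glo luminescence in fresh medium, read 10 min after reagent addition.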

[1] = 72 h, A2780 cells, 3 days incubation
[2] = cell proliferation, A2780 cells
[3] = Cell Proliferation Assay, A2780

Row | Compound | pIC50 (PDK1 kinase) | pEC50 (A2780 cells; [1]) | pIC50 (PDK1 kinase; PDK1 Kinase Alpha Screen Assay) | further results
1 | NS(=O)(=O)c1ccc(Nc2ncc3cccc(-c4ccc5c(c4)OCO5)c3n2)cc1 [Compound 95, 4-(8-Benzo[1,3]dioxol-5-yl-quinazolin-2-ylamino)-benzenesulfonamide] | > 5.30 | > 5.30 |  | 
2 | CN1CCN(C(=O)c2ccc3cnc(Nc4ccc(S(N)(=O)=O)cc4)nc3c2)CC1 [Compound 135, 4-[7-(4-Methyl-piperazine-1-carbonyl)-quinazolin-2-ylamino]-benzenesulfonamide] | 4.60 to 5.00 | 5.00 to 5.30 |  | 
3 | NC(=O)c1ccc(-c2ccc3cnc(Nc4ccc(S(N)(=O)=O)cc4)nc3c2OC2CCNCC2)cc1 [Compound 854, 4-(8-(piperidin-4-yloxy)-2-(4-sulfamoylphenylamino)quinazolin-7-yl)benzamide] |  |  | > 5.30 | pEC50 (A2780 cells; [2]): 5.00 to 5.30
4 | COCCN(C)Cc1cccc2cnc(Nc3ccc(S(N)(=O)=O)cc3)nc12 [Compound 392, 4-(8-(((2-methoxyethyl)(methyl)amino)methyl)quinazolin-2-ylamino)benzenesulfonamide] |  |  | > 5.30 | pEC50 (A2780 cells; [3]): > 5.30
5 | O=S(=O)(NC1CC1)c1cccc(Nc2ncc3cccc(OC4CCNCC4)c3n2)c1 [Compound 16, N-Cyclopropyl-3-[8-(piperidin-4-yloxy)-quinazolin-2-ylamino]-benzenesulfonamide] | > 5.30 | > 5.30 |  | 
6 | CN(C)CCOc1ccc2cnc(Nc3ccc(S(N)(=O)=O)cc3)nc2c1 [Compound 630, 4-(7-(2-(dimethylamino)ethoxy)quinazolin-2-ylamino)benzenesulfonamide] |  |  | > 5.30 | pEC50 (A2780 cells; [3]): 5.00 to 5.30
7 | COc1cccc(Oc2ccc3cnc(Nc4ccc(S(N)(=O)=O)cc4)nc3c2)c1 [Compound 415, 4-(7-(3-methoxyphenoxy)quinazolin-2-ylamino)benzenesulfonamide] |  |  | > 5.30 | pEC50 (A2780 cells; [3]): > 5.30
8 | NC(=O)c1ccc(-c2cc(F)cc3cnc(Nc4ccc(S(N)(=O)=O)cc4)nc23)cc1 [Compound 886, 4-(6-fluoro-2-(4-sulfamoylphenylamino)quinazolin-8-yl)benzamide] |  |  | > 5.30 | pEC50 (A2780 cells; [2]): 5.00 to 5.30
9 | CN1CC[C@H](Oc2cccc3cnc(Nc4ccc(S(N)(=O)=O)cc4)nc23)C1 [Compound 34, 4-[8-((S)-1-Methyl-pyrrolidin-3-yloxy)-quinazolin-2-ylamino]-benzenesulfonamide] | > 5.30 | > 5.30 |  | 
10 | NS(=O)(=O)c1ccc(Nc2ncc3ccc(Br)c(OC4CCNCC4)c3n2)cc1 [Compound 17, 4-[7-Bromo-8-(piper-idin-4-yloxy)-quin-azolin-2-ylamino]-benzenesulfonamide] | > 5.30 | > 5.30 |  | 
11 | CC(C)Oc1cccc2cnc(Nc3ccc(S(C)(=O)=O)cc3)nc12 [Compound 554, 8-isopropoxy-N-(4-(methylsulfonyl)phenyl)quinazolin-2-amine] |  |  | > 5.30 | pEC50 (A2780 cells; [3]): > 5.30
12 | CC(=O)NS(=O)(=O)c1ccc(Nc2ncc3cccc(OC(C)C)c3n2)cc1 [Compound 312, N-(4-(8-isopropoxyquinazolin-2-ylamino)phenylsulfonyl)acetamide] |  |  | > 5.30 | pEC50 (A2780 cells; [3]): 5.00 to 5.30
13 | NS(=O)(=O)c1ccc(Nc2ncc3ccc(-c4cn[nH]c4)c(OC4CCNCC4)c3n2)cc1 [Compound 859, 4-(8-(piperidin-4-yloxy)-7-(1H-pyrazol-4-yl)quinazolin-2-ylamino)benzenesulfonamide] |  |  | > 5.30 | pEC50 (A2780 cells; [2]): > 5.30
14 | NS(=O)(=O)c1ccc(Nc2ncc3cccc(CN4CCc5ccccc5C4)c3n2)cc1 [Compound 923, 4-(8-((3,4-dihydroisoquinolin-2(1H)-yl)methyl)quinazolin-2-ylamino)benzenesulfonamide] | > 5.30 |  |  | pEC50 (A2780 cells; A2780 cells): > 5.30
15 | COc1cc(-c2cccc3cnc(Nc4ccc(S(N)(=O)=O)cc4)nc23)c(Cl)cn1 [Compound 117, 4-[8-(5-Chloro-2-methoxy-pyridin-4-yl)-quinazolin-2-ylamino]-benzenesulfonamide] | > 5.30 | > 5.30 |  | 
16 | NS(=O)(=O)c1ccc(Nc2ncc3cccc(OCC(=O)N4CCOCC4)c3n2)cc1 [Compound 518, 4-(8-(2-morpholino-2-oxoethoxy)quinazolin-2-ylamino)benzenesulfonamide] |  |  | 5.00 to 5.30 | pEC50 (A2780 cells; [3]): 5.00 to 5.30
17 | NS(=O)(=O)c1ccc(Nc2ncc3cccc(CNCC4CCCO4)c3n2)cc1 (centres unmarked) [Compound 922, 4-(8-(((tetrahydrofuran-2-yl)methylamino)methyl)quinazolin-2-ylamino)benzenesulfonamide] | > 5.30 |  |  | pEC50 (A2780 cells; A2780 cells): > 5.30
18 | NC(=O)c1ccc(-c2ccc3cnc(Nc4ccc(S(N)(=O)=O)cc4)nc3c2)cn1 [Compound 131, 5-[2-(4-Sulfamoyl-phenylamino)-quinazolin-7-yl]-pyridine-2-carboxylic acid amide] | > 5.30 | 5.00 to 5.30 |  | 
19 | NC(=O)C1CCN(Cc2cccc3cnc(Nc4ccc(S(N)(=O)=O)cc4)nc23)CC1 [Compound 919, 1-((2-(4-sulfamoylphenylamino)quinazolin-8-yl)methyl)piperidine-4-carboxamide] | > 5.30 |  |  | pEC50 (A2780 cells; A2780 cells): 5.00 to 5.30
20 | CC(C)N1CCC(Oc2cccc3cnc(Nc4cccc(S(=O)(=O)N5CCOCC5)c4)nc23)CC1 [Compound 6, [8-(1-Isopropyl-piper-idin-4-yloxy)-quina-zolin-2-yl]-[3-(morpholine-4-sul-fonyl)-phenyl]-amine] | > 5.30 | > 5.30 |  | 
21 | CN1CC[C@@H](Oc2cccc3cnc(Nc4ccc(S(N)(=O)=O)cc4)nc23)C1 [Compound 38, 4-[8-((R)-1-Methyl-pyrrolidin-3-yloxy)-quinazolin-2-ylamino]-benzenesulfonamide] | > 5.30 | > 5.30 |  | 
22 | COc1cncc(-c2ccc3cnc(Nc4ccc(S(N)(=O)=O)cc4)nc3c2OC2CCNCC2)c1 [Compound 858, 4-(7-(5-methoxypyridin-3-yl)-8-(piperidin-4-yloxy)quinazolin-2-ylamino)benzenesulfonamide] |  |  | > 5.30 | pEC50 (A2780 cells; [2]): > 5.30
23 | CS(=O)(=O)Nc1cccc(-c2cccc3cnc(Nc4ccc(S(N)(=O)=O)cc4)nc23)c1 [Compound 92, 4-[8-(3-Methanesulfonylamino-phenyl)-quinazolin-2-ylamino]-benzenesulfonamide] | > 5.30 | > 5.30 |  | 
24 | CC(=O)Nc1ccc(Nc2ncc3cccc(OC(C)C)c3n2)cc1 [Compound 311, N-(4-(8-isopropoxyquinazolin-2-ylamino)phenyl)acetamide] |  |  | > 5.30 | pEC50 (A2780 cells; [3]): 5.00 to 5.30
25 | NC(=O)c1ccc(-c2ccc3cnc(Nc4ccc(S(N)(=O)=O)cc4)nc3c2)cc1 [Compound 124, 4-[2-(4-Sulfamoyl-phenylamino)-quinazolin-7-yl]-benzamide] | > 5.30 | 5.00 to 5.30 |  | 
26 | CN1CCN(S(=O)(=O)c2cccc(Nc3ncc4cccc(OC5CCNCC5)c4n3)c2)CC1 [Compound 7, [3-(4-Methyl-piper-azine-1-sulfonyl)-phenyl]-[8-(piperidin-4-yloxy)-quinazolin-2-yl]-amine] | > 5.30 | > 5.30 |  | 
27 | Cc1noc(C)c1-c1ccc2cnc(Nc3ccc(S(N)(=O)=O)cc3)nc2c1 [Compound 867, 4-(7-(3,5-dimethylisoxazol-4-yl)quinazolin-2-ylamino)benzenesulfonamide] |  |  | > 5.30 | pEC50 (A2780 cells; [2]): > 5.30
28 | NS(=O)(=O)c1ccc(Nc2ncc3ccc(OCCC4CCNCC4)cc3n2)cc1 [Compound 632, 4-(7-(2-(piperidin-4-yl)ethoxy)quinazolin-2-ylamino)benzenesulfonamide] |  |  | > 5.30 | pEC50 (A2780 cells; [3]): > 5.30
